The supplement of paper PMC10307832

How the values were obtained:
Assay in all cases: relative viability (nuclei count vs DMSO), 5 days (fraction); higher = more cells survive
ABC-1 = tested on: ABC-1
Method in brief: (§1)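 Relative viability divides the nuclei count in treated wells by that in vehicle wells. Lung cancer cell lines were seeded in 1536-well plates, dosed by pin tool the next day, and fixed and stained after 5 days in one step with final 0.05% Triton X-100, 1% formaldehyde and 1 ug/ml Hoechst. Dosing was a single drug or a fixed anchor-drug dose plus five library-drug doses (not always all listed) in √10 steps, and values are medians of duplicate plates imaged at 4×.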

HCC-44 = tested on: HCC-44
Method in brief: as §1

LOU-NH91 = tested on: LOU-NH91
Method in brief: as §1

NCI-H647 = tested on: NCI-H647
Method in brief: as §1

NCI-H1734 = tested on: NCI-H1734
Method in brief: as §1

COR-L23 = tested on: COR-L23
Method in brief: as §1

SW 900 = tested on: SW 900
Method in brief: as §1

NCI-H1650 = tested on: NCI-H1650
Method in brief: as §1

EPLC-272H = tested on: EPLC-272H
Method in brief: as §1

RERF-LC-KJ = tested on: RERF-LC-KJ
Method in brief: as §1

NCI-H1993 = tested on: NCI-H1993
Method in brief: as §1

NCI-H1793 = tested on: NCI-H1793
Method in brief: as §1

NCI-H1563 = tested on: NCI-H1563
Method in brief: as §1

NCI-H441 = tested on: NCI-H441
Method in brief: as §1

NCI-H3122 = tested on: NCI-H3122
Method in brief: as §1

NCI-H520 = tested on: NCI-H520
Method in brief: as §1

PC-14 = tested on: PC-14
Method in brief: as §1

NCI-H2023 = tested on: NCI-H2023
Method in brief: as §1

NCI-H2085 = tested on: NCI-H2085
Method in brief: as §1

NCI-H2347 = tested on: NCI-H2347
Method in brief: as §1

EKVX = tested on: EKVX
Method in brief: as §1

201T = tested on: 201T
Method in brief: as §1

NCI-H2405 = tested on: NCI-H2405
Method in brief: as §1

NCI-H2170 = tested on: NCI-H2170
Method in brief: as §1

CC(C)Oc1cc(Nc2nc(N[C@@H](C)c3ccc(F)cn3)ncc2Cl)n[nH]1 [AZ23] + COc1cccc2cc(-c3nc([C@H]4CC[C@H](C(=O)O)CC4)n4ncnc(N)c34)[nH]c12 [OSI-027] (partner 0.5 µM)
relative viability (ABC-1; first compound 0.01 µM): 0.398
relative viability (ABC-1; first compound 0.03162 µM): 0.408
relative viability (ABC-1; first compound 0.3162 µM): 0.469
relative viability (HCC-44; first compound 0.01 µM): 0.538
relative viability (HCC-44; first compound 0.03162 µM): 0.661
relative viability (HCC-44; first compound 0.3162 µM): 0.375
relative viability (LOU-NH91; first compound 0.01 µM): 0.692
relative viability (LOU-NH91; first compound 0.03162 µM): 0.753
relative viability (LOU-NH91; first compound 0.3162 µM): 0.704
relative viability (NCI-H647; first compound 0.01 µM): 0.765
relative viability (NCI-H647; first compound 0.03162 µM): 0.745
relative viability (NCI-H647; first compound 0.3162 µM): 0.789
relative viability (NCI-H1734; first compound 0.01 µM): 0.628
relative viability (NCI-H1734; first compound 0.03162 µM): 0.62
relative viability (NCI-H1734; first compound 0.3162 µM): 0.588
relative viability (COR-L23; first compound 0.01 µM): 0.758
relative viability (COR-L23; first compound 0.03162 µM): 0.868
relative viability (COR-L23; first compound 0.3162 µM): 0.822
relative viability (SW 900; first compound 0.01 µM): 0.512
relative viability (SW 900; first compound 0.03162 µM): 0.663
relative viability (SW 900; first compound 0.3162 µM): 0.579
relative viability (NCI-H1650; first compound 0.03162 µM): 0.689
relative viability (NCI-H1650; first compound 0.3162 µM): 0.713
relative viability (EPLC-272H; first compound 0.01 µM): 0.238
relative viability (EPLC-272H; first compound 0.03162 µM): 0.275
relative viability (EPLC-272H; first compound 0.3162 µM): 0.256
relative viability (RERF-LC-KJ; first compound 0.01 µM): 0.592
relative viability (RERF-LC-KJ; first compound 0.03162 µM): 0.623
relative viability (RERF-LC-KJ; first compound 0.3162 µM): 0.616
relative viability (NCI-H1993; first compound 0.01 µM): 0.581
relative viability (NCI-H1993; first compound 0.03162 µM): 0.559
relative viability (NCI-H1993; first compound 0.3162 µM): 0.529
relative viability (NCI-H1793; first compound 0.01 µM): 0.226
relative viability (NCI-H1793; first compound 0.03162 µM): 0.303
relative viability (NCI-H1793; first compound 0.3162 µM): 0.28
relative viability (NCI-H1563; first compound 0.01 µM): 0.768
relative viability (NCI-H1563; first compound 0.03162 µM): 0.775
relative viability (NCI-H1563; first compound 0.3162 µM): 0.775
relative viability (NCI-H441; first compound 0.01 µM): 0.707
relative viability (NCI-H441; first compound 0.03162 µM): 0.729
relative viability (NCI-H441; first compound 0.3162 µM): 0.566
relative viability (NCI-H3122; first compound 0.01 µM): 1.12
relative viability (NCI-H3122; first compound 0.03162 µM): 1.12
relative viability (NCI-H3122; first compound 0.3162 µM): 1.12
relative viability (NCI-H520; first compound 0.01 µM): 0.276
relative viability (NCI-H520; first compound 0.03162 µM): 0.281
relative viability (NCI-H520; first compound 0.3162 µM): 0.278
relative viability (PC-14; first compound 0.03162 µM): 1.01
relative viability (PC-14; first compound 0.3162 µM): 1.24
relative viability (NCI-H2023; first compound 0.03162 µM): 0.373
relative viability (NCI-H2023; first compound 0.3162 µM): 0.437
relative viability (NCI-H2085; first compound 0.01 µM): 0.676
relative viability (NCI-H2085; first compound 0.03162 µM): 0.76
relative viability (NCI-H2085; first compound 0.3162 µM): 0.659
relative viability (NCI-H2347; first compound 0.01 µM): 0.298
relative viability (NCI-H2347; first compound 0.03162 µM): 0.262
relative viability (NCI-H2347; first compound 0.3162 µM): 0.389
relative viability (EKVX; first compound 0.01 µM): 0.801
relative viability (EKVX; first compound 0.03162 µM): 0.636
relative viability (EKVX; first compound 0.3162 µM): 0.66
relative viability (201T; first compound 0.01 µM): 0.504
relative viability (201T; first compound 0.03162 µM): 0.827
relative viability (201T; first compound 0.3162 µM): 0.728
relative viability (NCI-H2405; first compound 0.01 µM): 0.555
relative viability (NCI-H2405; first compound 0.03162 µM): 0.667
relative viability (NCI-H2405; first compound 0.3162 µM): 0.614
relative viability (NCI-H2170; first compound 0.01 µM): 0.664
relative viability (NCI-H2170; first compound 0.03162 µM): 0.722
relative viability (NCI-H2170; first compound 0.3162 µM): 0.726
